This test deals with Mycobacterium tuberculosis variant bovis. As to the kind of experiment: microbe, parasite or virus in culture. It is filed as functional. To be noted: ATCC 35734, 168 h.

Values after ≈ are worked out from the molar mass of the structure shown. A value given as a limit tells only on which side of the number the result lay.

Regarding `O=C(/C=C/c1cccc([N+](=O)[O-])c1)c1ccc(N2CCCCC2)cc1`, the MIC90 is over 10 µM. Then `CCCCc1ccc(C(=O)/C=C/c2ccc([N+](=O)[O-])o2)cc1`, with 0.36 µM (≈ 0.108 µg/mL); and `Cc1ccc(C(=O)/C=C/c2ccc([N+](=O)[O-])s2)cc1`, with 0.98 µM (≈ 0.268 µg/mL).

The compound `O=C(/C=C/c1ccc([N+](=O)[O-])o1)c1cccc(Br)c1` showed an MIC90 of 0.18 µM (≈ 0.058 µg/mL). The result for `COc1ccc(/C=C/C(=O)c2ccc(-c3ccccc3)cc2)cc1` reads over 10 µM; that for `CC(C)(C)c1ccc(C(=O)/C=C/c2ccco2)cc1`, over 10 µM. Then `O=C(/C=C/c1ccc([N+](=O)[O-])o1)c1ccc(-c2ccccc2)cc1`, with 0.59 µM (≈ 0.188 µg/mL); and `CSc1ccc(C(=O)/C=C/c2ccco2)cc1`, with over 10 µM; and `O=C(/C=C/c1ccc([N+](=O)[O-])o1)c1ccc(I)cc1`, with 2.57 µM (≈ 0.949 µg/mL). `CSc1ccc(C(=O)/C=C/c2ccc([N+](=O)[O-])s2)cc1`: the MIC90 is 0.56 µM (≈ 0.171 µg/mL).

As for `Cc1ccccc1C(=O)/C=C/c1ccc([N+](=O)[O-])o1`, the MIC90 worked out at 0.27 µM (≈ 0.0695 µg/mL). Then `CCCCc1ccc(C(=O)/C=C/c2ccc([N+](=O)[O-])s2)cc1`, with 1.64 µM (≈ 0.517 µg/mL); and `CC(C)(C)c1ccc(C(=O)/C=C/c2ccc([N+](=O)[O-])s2)cc1`, with 0.5 µM (≈ 0.158 µg/mL); and `CN(C)c1ccc(/C=C/C(=O)c2ccc(-c3ccccc3)cc2)cc1`, with over 10 µM. `O=C(/C=C/c1ccc([N+](=O)[O-])s1)c1ccc(-n2ccnc2)cc1`: the MIC90 came out at 0.23 µM (≈ 0.0748 µg/mL). `CC(C)(C)c1ccc(C(=O)/C=C/c2ccc[nH]2)cc1` yielded an MIC90 of over 10 µM.

`COc1ccc(/C=C/C(=O)c2cccc(Br)c2)cc1` showed an MIC90 of 9.38 µM (≈ 2.98 µg/mL). As for `O=C(/C=C/c1ccc([N+](=O)[O-])o1)c1ccc(N2CCCC2)cc1`, the MIC90 was 2.18 µM (≈ 0.681 µg/mL). Then `O=C(/C=C/c1ccc([N+](=O)[O-])s1)c1ccc(N2CCOCC2)cc1`, with 9.12 µM (≈ 3.14 µg/mL); and `O=C(/C=C/c1ccc([N+](=O)[O-])cc1)c1ccc(N2CCCCC2)cc1`, with over 10 µM; and `O=C(/C=C/c1ccc(Cl)s1)c1ccc(-n2ccnc2)cc1`, with 9.52 µM (≈ 3 µg/mL). Then `O=C(/C=C/c1ccco1)c1ccc(N2CCCCC2)cc1`, with over 10 µM; and `O=C(/C=C/c1ccc([N+](=O)[O-])s1)c1ccc(C2CCCCC2)cc1`, with 2.38 µM (≈ 0.813 µg/mL).

Compound `Cc1cccc(C(=O)/C=C/c2ccc([N+](=O)[O-])o2)c1` yielded an MIC90 of over 10 µM.

`COc1ccc(/C=C/C(=O)c2cccc(I)c2)cc1` registered an MIC90 of 9.47 µM (≈ 3.45 µg/mL).

`CSc1ccc(C(=O)/C=C/c2ccc([N+](=O)[O-])o2)cc1`: the MIC90 was found to be 0.26 µM (≈ 0.0752 µg/mL).

The record behind these values is ChEMBL document CHEMBL4118066, “QSAR-driven design, synthesis and discovery of potent chalcone derivatives with antitubercular activity” (Eur J Med Chem, 2017).
